Measurements from paper PMC10986521 (Microbiology Spectrum, 2024).

Columns and labels:
[1] = tested on: FMDV; details: cited from earlier work
[2] = molecular target: T1, FMDV 3Cpro (Foot-and-mouth disease virus A, UniProt A0A097I315); test: biochemical; parameters: species or system FMDV A/IND287/96 strain (serotype A); details: FRET assay (IC50)
[3] = molecular target: T1, FMDV 3Cpro; test: cell-based; parameters: species or system FMDV A/IND287/96 strain; details: Cell-based assay (EC50)
[4] = in vitro; details: human

## N#Cc1cc(-c2ccccc2)[nH]c1-c1nccc2ccccc12 [NSC116640]
[1]
  replication of FMDV in cell culture via inhibiting 3Cpro: inhibited the replication of FMDV in cell culture

## CC(C)C[C@H](NC(=O)OC[C@H]1[C@H](c2ccccc2)C1(F)F)C(=O)N[C@H](C=O)C[C@H]1CCNC1=O [Compound C2c]
[2]
  IC50: 1350 ± 640 nM
[3]
  EC50: 1200 ± 140 nM
[4]
  CC50: > 50000 nM

## CC(C)C[C@H](NC(=O)OC[C@H]1[C@H](c2ccccc2)C1(F)F)C(=O)N[C@@H](C[C@H]1CCNC1=O)C(O)S(=O)(=O)O (stereo partly shown) [Compound C2d]
[2]
  IC50: 1100 ± 570 nM
[3]
  EC50: 1450 ± 210 nM
[4]
  CC50: > 50000 nM

## CC(C)C[C@H](NC(=O)OCC(C)(C)Sc1ccc(F)cc1)C(=O)N[C@H](C=O)C[C@@H]1CCNC1=O [Compound D6c]
[2]
  IC50: 910 ± 150 nM
[3]
  EC50: 5150 ± 640 nM
[4]
  CC50: > 50000 nM

## CC(C)C[C@H](NC(=O)OC[C@H]1[C@H](Cc2ccccc2)C1(F)F)C(=O)N[C@@H](C[C@H]1CCNC1=O)C(O)S(=O)(=O)O (stereo partly shown) [Compound C4d]
[2]
  IC50: 1350 ± 350 nM
[3]
  EC50: 3650 ± 630 nM
[4]
  CC50: > 50000 nM

## CCOC(=O)CNC(=O)C(=O)[C@H](C[C@@H]1CCNC1=O)NC(=O)[C@H](CC(C)C)NC(=O)OCc1ccccc1 [Compound E6d]
[2]
  IC50: 2200 ± 50 nM
[3]
  EC50: 9200 ± 100 nM
[4]
  CC50: > 50000 nM

## CC(C)C[C@H](NC(=O)OC[C@@H]1C[C@H]1c1ccccc1)C(=O)N[C@@H](C[C@H]1CCNC1=O)C(O)S(=O)(=O)O (stereo partly shown) [Compound C1d]
[2]
  IC50: 750 ± 70 nM
[3]
  EC50: 3250 ± 630 nM
[4]
  CC50: > 50000 nM

## COc1cccc([C@@H]2C[C@H]2COC(=O)N[C@@H](CC(C)C)C(=O)N[C@H](C=O)C[C@H]2CCNC2=O)c1 [Compound C9c]
[2]
  IC50: 750 ± 140 nM
[3]
  EC50: 2950 ± 280 nM
[4]
  CC50: > 50000 nM

## CC(C)C[C@H](NC(=O)OCc1ccccc1)C(=O)N[C@@H](C[C@@H]1CCNC1=O)C(=O)C(=O)NC1CC1 [Compound E6b]
[2]
  IC50: 2400 ± 90 nM
[3]
  EC50: 8800 ± 300 nM
[4]
  CC50: > 50000 nM

## CC(C)C[C@H](NC(=O)OC[C@@H]1C[C@H]1c1cccc(Cl)c1)C(=O)N[C@H](C=O)C[C@H]1CCNC1=O [Compound C6c]
[2]
  IC50: 800 ± 50 nM
[3]
  EC50: 3300 ± 710 nM
[4]
  CC50: > 50000 nM

## [2H]C([2H])(OC(=O)N[C@@H](CC(C)C)C(=O)N[C@H](C=O)C[C@@H]1CCNC1=O)C(C)(C)Sc1ccccc1 [Compound D2c]
[2]
  IC50: 1520 ± 20 nM
[3]
  EC50: 2500 ± 420 nM
[4]
  CC50: > 50000 nM

## CC(C)C[C@H](NC(=O)OCc1ccccc1)C(=O)N[C@@H](C[C@@H]1CCNC1=O)C(=O)C(=O)NC(C)(C)C [Compound E6g]
[2]
  IC50: 1500 ± 100 nM
[3]
  EC50: 5800 ± 300 nM
[4]
  CC50: > 50000 nM

## CC(C)C[C@H](NC(=O)OCC(C)(C)Sc1cccc(Cl)c1)C(=O)N[C@H](C=O)C[C@@H]1CCNC1=O [Compound D7c]
[2]
  IC50: 1500 ± 280 nM
[3]
  EC50: 1050 ± 210 nM
[4]
  CC50: > 50000 nM

## COc1cccc([C@@H]2C[C@H]2COC(=O)N[C@@H](CC(C)C)C(=O)N[C@@H](C[C@H]2CCNC2=O)C(O)S(=O)(=O)O)c1 (stereo partly shown) [Compound C9d]
[2]
  IC50: 840 ± 60 nM
[3]
  EC50: 2050 ± 640 nM
[4]
  CC50: > 50000 nM

## CC(C)C[C@H](NC(=O)OCC(C)(C)Oc1cccc(Cl)c1)C(=O)N[C@@H](C[C@@H]1CCNC1=O)C(O)S(=O)(=O)O (stereo partly shown) [Compound D13d]
[2]
  IC50: 650 ± 210 nM
[3]
  EC50: 7700 ± 850 nM
[4]
  CC50: > 50000 nM

## CC(C)C[C@H](NC(=O)OCC(C)(C)Sc1nc2ccccc2[nH]1)C(=O)N[C@H](C=O)C[C@@H]1CCNC1=O [Compound D9c]
[2]
  IC50: 2150 ± 340 nM
[3]
  EC50: > 10000 nM
[4]
  CC50: > 50000 nM

## CC(C)C[C@H](NC(=O)OCc1ccccc1)C(=O)N[C@@H](C[C@@H]1CCNC1=O)C(=O)c1ncco1 [Compound E8a]
[2]
  IC50: 3400 ± 80 nM
[3]
  EC50: 8200 ± 90 nM
[4]
  CC50: > 50000 nM

## CC(C)C[C@H](NC(=O)OCC(C)(C)S(=O)(=O)c1ccccc1)C(=O)N[C@H](C=O)C[C@@H]1CCNC1=O [Compound D4c]
[2]
  IC50: 900 ± 280 nM
[3]
  EC50: > 10000 nM
[4]
  CC50: > 50000 nM

## CC(C)C[C@H](NC(=O)OCC(C)(C)S(=O)(=O)c1ccccc1)C(=O)N[C@@H](C[C@@H]1CCNC1=O)C(O)S(=O)(=O)O (stereo partly shown) [Compound D4d]
[2]
  IC50: 650 ± 90 nM
[3]
  EC50: > 10000 nM
[4]
  CC50: > 50000 nM

## CC(C)C[C@H](NC(=O)OC[C@@H]1C[C@H]1C1CCC(F)(F)CC1)C(=O)N[C@H](C=O)C[C@H]1CCNC1=O [Compound C17c]
[2]
  IC50: 650 ± 70 nM
[3]
  EC50: > 10000 nM
[4]
  CC50: > 50000 nM

## CC(C)C[C@H](NC(=O)OC[C@@H]1C[C@H]1c1ccc(F)cc1)C(=O)N[C@@H](C[C@H]1CCNC1=O)C(O)S(=O)(=O)O (stereo partly shown) [Compound C7d]
[2]
  IC50: 750 ± 70 nM
[3]
  EC50: 2150 ± 350 nM
[4]
  CC50: > 50000 nM

## CC(C)C[C@H](NC(=O)OCC(C)(C)Sc1ccccc1)C(=O)N[C@@H](C[C@@H]1CCNC1=O)C(=O)C(=O)NC1CC1 [Compound D1e]
[2]
  IC50: 3750 ± 70 nM
[3]
  EC50: 5000 ± 280 nM
[4]
  CC50: > 50000 nM

## CC(C)C[C@H](NC(=O)OC[C@@H]1C[C@H]1c1ccccc1)C(=O)N[C@H](C=O)C[C@H]1CCNC1=O [Compound C1c]
[2]
  IC50: 1000 ± 280 nM
[3]
  EC50: 3150 ± 350 nM
[4]
  CC50: > 50000 nM

## CC(C)C[C@H](NC(=O)OC[C@@H]1C[C@H]1c1ccc(F)cc1)C(=O)N[C@H](C=O)C[C@H]1CCNC1=O [Compound C7c]
[2]
  IC50: 590 ± 40 nM
[3]
  EC50: 2000 ± 140 nM
[4]
  CC50: > 50000 nM

## CC(C)C[C@H](NC(=O)OC[C@@H]1C[C@H]1CC1CCCCC1)C(=O)N[C@@H](C[C@H]1CCNC1=O)C(O)S(=O)(=O)O (stereo partly shown) [Compound C16d]
[2]
  IC50: 330 ± 40 nM
[3]
  EC50: 1210 ± 480 nM
[4]
  CC50: > 50000 nM

## COc1ccccc1[C@@H]1C[C@H]1COC(=O)N[C@@H](CC(C)C)C(=O)N[C@H](C=O)C[C@H]1CCNC1=O [Compound C11c]
[2]
  IC50: 950 ± 210 nM
[3]
  EC50: 1080 ± 50 nM
[4]
  CC50: > 50000 nM

## CC(C)C[C@H](NC(=O)OCc1ccccc1)C(=O)N[C@H](C=O)C[C@@H]1CCNC1=O [GC373]
[2]
  IC50: 2300 ± 70 nM
[3]
  EC50: 6600 ± 200 nM
[4]
  CC50: > 50000 nM

## CC(C)C[C@H](NC(=O)OCC(C)(C)[S+]([O-])c1ccccc1)C(=O)N[C@@H](C[C@@H]1CCNC1=O)C(O)S(=O)(=O)O (stereo partly shown) [Compound D3d]
[2]
  IC50: 1050 ± 210 nM
[3]
  EC50: > 10000 nM
[4]
  CC50: > 50000 nM

## CC(C)C[C@H](NC(=O)OCC(C)(C)Oc1ccc(F)cc1)C(=O)N[C@@H](C[C@@H]1CCNC1=O)C(O)S(=O)(=O)O (stereo partly shown) [Compound D15d]
[2]
  IC50: 550 ± 70 nM
[3]
  EC50: 5900 ± 580 nM
[4]
  CC50: > 50000 nM

## CC(C)C[C@H](NC(=O)OCC(C)(C)Sc1cccc(Cl)c1)C(=O)N[C@@H](C[C@@H]1CCNC1=O)C(O)S(=O)(=O)O (stereo partly shown) [Compound D7d]
[2]
  IC50: 600 ± 10 nM
[3]
  EC50: 1200 ± 140 nM
[4]
  CC50: > 50000 nM

## COc1ccc([C@@H]2C[C@H]2COC(=O)N[C@@H](CC(C)C)C(=O)N[C@H](C=O)C[C@H]2CCNC2=O)cc1 [Compound C10c]
[2]
  IC50: 1250 ± 70 nM
[3]
  EC50: 3650 ± 1480 nM
[4]
  CC50: > 50000 nM

## CC(C)C[C@H](NC(=O)OC[C@@H]1C[C@H]1Cc1ccccc1)C(=O)N[C@@H](C[C@H]1CCNC1=O)C(O)S(=O)(=O)O (stereo partly shown) [Compound C3d]
[2]
  IC50: 800 ± 140 nM
[3]
  EC50: 4020 ± 300 nM
[4]
  CC50: > 50000 nM

## CCCCNC(=O)C(=O)[C@H](C[C@@H]1CCNC1=O)NC(=O)[C@H](CC(C)C)NC(=O)OCc1ccccc1 [Compound E6c]
[2]
  IC50: 2100 ± 70 nM
[3]
  EC50: 7000 ± 500 nM
[4]
  CC50: > 50000 nM

## [2H]C([2H])(OC(=O)N[C@@H](CC(C)C)C(=O)N[C@H](C=O)C[C@@H]1CCNC1=O)C(C)(C)Oc1ccc(Cl)cc1 [Compound D12c]
[2]
  IC50: 140 ± 20 nM
[3]
  EC50: 350 ± 100 nM
[4]
  CC50: > 50000 nM

## CC(C)C[C@H](NC(=O)OCC(C)(C)Sc1ccc(F)cc1)C(=O)N[C@@H](C[C@@H]1CCNC1=O)C(O)S(=O)(=O)O (stereo partly shown) [Compound D6d]
[2]
  IC50: 980 ± 110 nM
[3]
  EC50: 5850 ± 350 nM
[4]
  CC50: > 50000 nM

## CC(C)C[C@H](NC(=O)OCC(C)(C)Sc1cccc(F)c1)C(=O)N[C@H](C=O)C[C@@H]1CCNC1=O [Compound D5c]
[2]
  IC50: 3150 ± 490 nM
[3]
  EC50: 1000 ± 280 nM
[4]
  CC50: > 50000 nM

## COc1ccc([C@@H]2C[C@H]2COC(=O)N[C@@H](CC(C)C)C(=O)N[C@@H](C[C@H]2CCNC2=O)C(O)S(=O)(=O)O)cc1 (stereo partly shown) [Compound C10d]
[2]
  IC50: 1050 ± 210 nM
[3]
  EC50: 2850 ± 1550 nM
[4]
  CC50: > 50000 nM

## CC(C)C[C@H](NC(=O)OCCSc1ccccc1)C(=O)N[C@H](C=O)C[C@@H]1CCNC1=O [Compound D8c]
[2]
  IC50: 1350 ± 350 nM
[3]
  EC50: 1750 ± 210 nM
[4]
  CC50: > 50000 nM

## CC(C)C[C@H](NC(=O)OC[C@@H]1C[C@H]1CC1CCCCC1)C(=O)N[C@H](C=O)C[C@H]1CCNC1=O [Compound C16c]
[2]
  IC50: 360 ± 90 nM
[3]
  EC50: 900 ± 60 nM
[4]
  CC50: > 50000 nM
